Measurements taken from patent US10550105B2 (Ribon Therapeutics Inc., priority 2018, dated 2020).

target: PARP7 (Homo sapiens (Human), UniProt Q7Z3E1); assay: Enzymatic assay for inhibition of PARP7: TR-FRET displacement of biotinylated Probe A from the TIPARP active site; assay type: binding; settings: Table A-1
Procedure, shortened: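 Displacement of biotinylated Probe A from TIPARP was measured as the 665/615 nm time-resolved FRET ratio (excitation 320 nm, 90 μs delay) after a further 30 min at 25 °C. Inhibition across compound concentrations was fitted by dose-response regression, with the Hill slope free or fixed at 1 (3-parameter fit).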

PARP7, sequence (Q7Z3E1 whole entry): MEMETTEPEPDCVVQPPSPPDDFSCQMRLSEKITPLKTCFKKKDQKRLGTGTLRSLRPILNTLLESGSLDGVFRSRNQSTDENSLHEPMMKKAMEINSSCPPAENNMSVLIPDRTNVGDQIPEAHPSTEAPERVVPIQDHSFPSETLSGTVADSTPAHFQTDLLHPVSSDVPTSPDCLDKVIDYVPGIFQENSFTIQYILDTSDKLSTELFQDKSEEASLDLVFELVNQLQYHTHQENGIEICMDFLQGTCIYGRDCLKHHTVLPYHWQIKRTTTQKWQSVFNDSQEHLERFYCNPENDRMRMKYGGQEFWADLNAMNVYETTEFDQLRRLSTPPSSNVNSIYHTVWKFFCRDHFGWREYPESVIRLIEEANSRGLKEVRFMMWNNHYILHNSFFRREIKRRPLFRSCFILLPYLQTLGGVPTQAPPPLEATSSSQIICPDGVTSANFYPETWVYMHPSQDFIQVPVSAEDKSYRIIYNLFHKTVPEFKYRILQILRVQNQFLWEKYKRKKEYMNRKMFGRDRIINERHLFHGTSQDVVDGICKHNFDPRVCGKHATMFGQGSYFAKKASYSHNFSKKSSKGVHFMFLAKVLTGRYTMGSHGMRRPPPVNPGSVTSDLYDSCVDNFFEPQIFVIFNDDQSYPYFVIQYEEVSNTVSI

| IC50 | Compound |
| --- | --- |
| 100 to 1000 nM | N#Cc1ccc(N2CCC(NC(=O)CCOC[C@@H]3CCCN3c3cn[nH]c(=O)c3C(F)(F)F)C2)nc1 (stereo partly drawn) [Example 117, N-[1-(5-cyanopyridin-2-yl)pyrrolidin-3-yl]-3-[[(2S)-1-[6-oxo-5-(trifluoromethyl)-1,6-dihydropyridazin-4-yl]pyrrolidin-2-yl]methoxy]propanamide] |
| < 100 nM | CN1CCC(COc2cc3c(cc2F)CN(c2cn[nH]c(=O)c2C(F)(F)F)C3)CC1 [Example 22, 5-[5-fluoro-6-[(1-methylpiperidin-4-yl)methoxy]-2,3-dihydro-1H-isoindol-2-yl]-4-(trifluoromethyl)-2,3-dihydropyridazin-3-one] |
| < 100 nM | O=C(C[C@@H]1CC[C@H](CNc2cn[nH]c(=O)c2C(F)(F)F)O1)N1CCN(c2ccc(C(F)(F)F)cn2)CC1 (single isomer, unassigned) [Example 546 Isomer D] |
| 100 to 1000 nM | CC1c2ccccc2CN1c1cn[nH]c(=O)c1C(F)(F)F (stereo not shown) [Example 249, 5-(1-Methylisoindolin-2-yl)-4-(trifluoromethyl)pyridazin-3(2H)-one] |
| < 100 nM | N#Cc1ccc(N2CCN(C(=O)CCOC[C@@H]3C[C@@H](N)CN3c3cn[nH]c(=O)c3C(F)(F)F)CC2)nc1 [Example 486, 6-(4-(3-(((2S,4R)-4-Amino-1-(6-oxo-5-(trifluoromethyl)-1,6-dihydropyridazin-4-yl)pyrrolidin-2-yl)methoxy)propanoyl)piperazin-1-yl)nicotinonitrile] |
| ≥ 1000 nM | N#Cc1cccnc1N1CCN(C(=O)c2cccc(OC[C@H]3c4ccccc4CN3c3cn[nH]c(=O)c3C(F)(F)F)c2)CC1 [Example 360, (R)-2-(4-(3-((2-(6-Oxo-5-(trifluoromethyl)-1,6-dihydropyridazin-4-yl)isoindolin-1-yl)methoxy)benzoyl)piperazin-1-yl)nicotinonitrile] |
| < 100 nM | NC(=O)c1cccc2c1CN(c1cn[nH]c(=O)c1C(F)(F)F)C2 [Example 269, 2-(6-Oxo-5-(trifluoromethyl)-1,6-dihydropyridazin-4-yl)isoindoline-4-carboxamide] |
| < 100 nM | C[C@@H](COCCC(=O)N1CCN(c2ncc(C(F)(F)F)cn2)CC1)Sc1cn[nH]c(=O)c1C(F)(F)F [Example 618, (S)-5-((1-(3-Oxo-3-(4-(5-(trifluoromethyl)pyrimidin-2-yl)piperazin-1-yl)propoxy)propan-2-yl)thio)-4-(trifluoromethyl)pyridazin-3(2H)-one] |
| ≥ 1000 nM | CC(C)c1c(N2Cc3cccc(OC4CCNCC4)c3C2)cn[nH]c1=O [Example 248, 4-Isopropyl-5-(4-(piperidin-4-yloxy)isoindolin-2-yl)pyridazin-3(2H)-one] |
| ≥ 1000 nM | O=C(C[C@@H]1CC[C@@H](COc2cn[nH]c(=O)c2Cl)O1)N1CCN(c2ncc(C(F)(F)F)cn2)CC1 (single isomer, unassigned) [Example 575 Isomer A] |
| < 100 nM | N#Cc1ccc(N2CCN(C(=O)c3cccc(OC[C@@H]4CCCN4c4cn[nH]c(=O)c4C(F)(F)F)c3)C(CO)C2)nc1 (stereo partly shown) [Example 33] |
| < 100 nM | COC[C@@H](COCCC(=O)N1CCN(c2ncc(C(F)(F)F)cn2)CC1)Oc1cn[nH]c(=O)c1C(F)(F)F (single isomer, unassigned) [Example 570 Isomer A] |
| < 100 nM | O=C(C[C@H]1CC[C@@H]([C@@H]2CCCN2c2cn[nH]c(=O)c2C(F)(F)F)O1)N1CCN(c2ncc(C(F)(F)F)cn2)CC1 [Example 149B, 5-[(2S)-2-[(2S,5R)-5-(2-oxo-2-[4-[5-(trifluoromethyl)pyrimidin-2-yl]piperazin-1-yl]ethyl)oxolan-2-yl]pyrrolidin-1-yl]-4-(trifluoromethyl)-2,3-dihydropyridazin-3-one] |
| < 100 nM | C[C@H](COc1cn[nH]c(=O)c1C(F)(F)F)OCCC(=O)N1CCN(c2ccc(Cl)cn2)CC1 (single isomer, unassigned) [Example 539 Isomer C] |
| < 100 nM | O=C(C[C@H]1CC[C@@H](CNc2cn[nH]c(=O)c2C(F)(F)F)O1)N1CCN(c2ncc(C(F)(F)F)cn2)CC1 [Example 568 Isomer C, 5-((((2S,5R)-5-(2-Oxo-2-(4-(5-(trifluoromethyl)pyrimidin-2-yl)piperazin-1-yl)ethyl)tetrahydrofuran-2-yl)methyl)amino)-4-(trifluoromethyl)pyridazin-3(2H)-one] |
| < 100 nM | C[C@@H](COCCC(=O)N1CCN(c2ccc(C#N)cn2)CC1)Oc1cn[nH]c(=O)c1Br [Example 650, (S)-6-(4-(3-(2-((5-Bromo-6-oxo-1,6-dihydropyridazin-4-yl)oxy)propoxy)propanoyl)piperazin-1-yl)nicotinonitrile] |
| ≥ 1000 nM | CCC1c2ccccc2CN1c1cn[nH]c(=O)c1C(F)(F)F (stereo not shown) [Example 310, 5-(1-Ethylisoindolin-2-yl)-4-(trifluoromethyl)pyridazin-3(2H)-one] |
| < 100 nM | N#Cc1ccc(N2CCN(C(=O)CCOCC3c4ncccc4CN3c3cn[nH]c(=O)c3C(F)(F)F)CC2)nc1 (stereo not shown) [Example 412, 6-(4-(3-((6-(6-Oxo-5-(trifluoromethyl)-1,6-dihydropyridazin-4-yl)-6,7-dihydro-5H-pyrrolo[3,4-b]pyridin-7-yl)methoxy)propanoyl)piperazin-1-yl)nicotinonitrile] |
| < 100 nM | COc1ccc(F)c2c1CN(c1cn[nH]c(=O)c1C(F)(F)F)C2 [Example 267, 5-(4-Fluoro-7-methoxyisoindolin-2-yl)-4-(trifluoromethyl)pyridazin-3(2H)-one] |

Second part, the molecule before the results:

| Compound | IC50 |
| --- | --- |
| O=c1[nH]ncc(N2Cc3ccc(O[C@@H]4CCCNC4)cc3C2)c1C(F)(F)F [Example 288, (R)-5-(5-(Piperidin-3-yloxy)isoindolin-2-yl)-4-(trifluoromethyl)pyridazin-3(2H)-one] | < 100 nM |
| C[C@@H](COCCC(=O)N1CCN(c2ccc(C#N)cn2)CC1)Nc1cn[nH]c(=O)c1Br [Example 600, 6-(4-[3-[(2S)-2-[(5-bromo-6-oxo-1,6-dihydropyridazin-4-yl)amino]propoxy]propanoyl]piperazin-1-yl)pyridine-3-carbonitrile] | < 100 nM |
| N#Cc1ccc(N2CCN(C(=O)CCOCCOc3cn[nH]c(=O)c3Br)CC2)nc1 [Example 555, 6-[4-(3-[2-[(5-Bromo-6-oxo-1,6-dihydropyridazin-4-yl)oxy]ethoxy]propanoyl)piperazin-1-yl]pyridine-3-carbonitrile] | < 100 nM |
| C[C@@H](COCCS(=O)(=O)N1CCN(c2ncc(C(F)(F)F)s2)CC1)Oc1cn[nH]c(=O)c1C(F)(F)F [Example 625, (S)-4-(Trifluoromethyl)-5-((1-(2-[(4-(5-(trifluoromethyl)thiazol-2-yl)piperazin-1-yl)sulfonyl)ethoxy)propan-2-yl)oxy)pyridazin-3(2H)-one] | < 100 nM |
| N#Cc1ccc(N2CCN(C(=O)CCOCCOCC3CCN(c4cn[nH]c(=O)c4C(F)(F)F)C3)CC2)nc1 (stereo not shown) [Example 466, 6-(4-(3-(2-((1-(6-Oxo-5-(trifluoromethyl)-1,6-dihydropyridazin-4-yl)pyrrolidin-3-yl)methoxy)ethoxy)propanoyl)piperazin-1-yl)nicotinonitrile] | < 100 nM |
| N#Cc1ccc(N2CCN(C(=O)CCOCC3CCCCN3c3cn[nH]c(=O)c3C(F)(F)F)CC2)nc1 (stereo not shown) [Example 130, 6-[4-[3-([1-[6-oxo-5-(trifluoromethyl)-1,6-dihydropyridazin-4-yl]piperidin-2-yl]methoxy)propanoyl]piperazin-1-yl]pyridine-3-carbonitrile] | 100 to 1000 nM |
| N#Cc1ccc(N2C[C@H]3C[C@@H]2CN3C(=O)CCOC[C@@H]2CCCN2c2cn[nH]c(=O)c2C(F)(F)F)nc1 [Example 112B, 6-[(1R,4R)-5-(3-(((S)-1-(6-oxo-5-(trifluoromethyl)-1,6-dihydropyridazin-4-yl)pyrrolidin-2-yl)methoxy)propanoyl)-2,5-diaza-bicyclo[2.2.1]heptan-2-yl)nicotinonitrile] | ≥ 1000 nM |
| COC[C@@H](COCCC(=O)N1CCN(c2ncc(Cl)cn2)CC1)Oc1cn[nH]c(=O)c1C(F)(F)F (single isomer, unassigned) | < 100 nM |
| N#Cc1cnc(N2CCN(C(=O)c3cccc(OCC4c5ccccc5CN4c4cn[nH]c(=O)c4C(F)(F)F)c3)CC2)cn1 (stereo not shown) [Example 366, 5-(4-(3-((2-(6-Oxo-5-(trifluoromethyl)-1,6-dihydropyridazin-4-yl)isoindolin-1-yl)methoxy)benzoyl)piperazin-1-yl)pyrazine-2-carbonitrile] | < 100 nM |
| N#Cc1ccc(N2CCN(C(=O)[C@@H]3CCC[C@@H](OC[C@@H]4CCCN4c4cn[nH]c(=O)c4C(F)(F)F)C3)CC2)nc1 (single isomer, unassigned) [Example 57 Isomer B] | < 100 nM |
| CC(=O)N1CCC(Oc2cc3c(cc2F)CN(c2cn[nH]c(=O)c2C(F)(F)F)C3)C1 (stereo not shown) [Example 54, 5-(5-(1-acetylpyrrolidin-3-yloxy)-6-fluoroisoindolin-2-yl)-4-(trifluoromethyl)pyridazin-3(2H)-one] | < 100 nM |
| C[C@H](COc1cn[nH]c(=O)c1C(F)(F)F)OCCC(=O)N1CCN(c2ncc(Cl)cn2)CC1 (single isomer, unassigned) [Example 543 Isomer C] | < 100 nM |
| O=C(c1cccc(OCC2c3ccccc3CN2c2cn[nH]c(=O)c2C(F)(F)F)c1)N1CCn2c(nnc2C(F)(F)F)C1 (stereo not shown) [Example 367, 4-(Trifluoromethyl)-5-(1-((3-(3-(trifluoromethyl)-5,6,7,8-tetrahydro-[1,2,4]triazolo[4,3-a]pyrazine-7-carbonyl)phenoxy)methyl)isoindolin-2-yl)pyridazin-3(2H)-one] | < 100 nM |
| O=c1[nH]ncc(N2C[C@@H]3CCCN[C@@H]3C2)c1C(F)(F)F [Example 498, 5-((4aS,7aS)-Octahydro-6H-pyrrolo[3,4-b]pyridin-6-yl)-4-(trifluoromethyl)pyridazin-3(2H)-one] | ≥ 1000 nM |
| N#Cc1ccc(N2C3CCC2CN(C(=O)CCOC[C@@H]2CCCN2c2cn[nH]c(=O)c2C(F)(F)F)C3)nc1 [Example 102, 6-[3-(3-[[(2S)-1-[6-oxo-5-(trifluoromethyl)-1,6-dihydropyridazin-4-yl]pyrrolidin-2-yl]methoxy]propanoyl)-3,8-diazabicyclo[3.2.1]octan-8-yl]pyridine-3-carbonitrile] | < 100 nM |
